According to patent publication US9469645B2, “Compounds and compositions for the treatment of parasitic diseases” (Novartis AG, priority 2009, dated 2016):

What was measured:
3D7 P. falciparum strain = experiment: parasite proliferation assay in infected red blood cells (SYBR Green I); format: cell-based, Plasmodium falciparum; conditions: Plasmodium falciparum, 3D7, Erythrocyte, 3D7 strain; read-out: EC50 3D7 strain
Method in brief: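 P. falciparum 3D7 grown in O+ human erythrocytes to 3–8% parasitemia and exposed to compounds. Proliferation read as the increase in parasite DNA. Detection used SYBR Green I in saponin/triton-X/EDTA lysis buffer, with overnight lysis at room temperature.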

W2 strain = experiment: parasite proliferation assay in infected red blood cells (SYBR Green I), W2 strain; format: cell-based; conditions: Erythrocyte
Excerpt: Compounds of the invention can be assayed to measure their capacity to inhibit proliferation of parasitemia in infected red blood cells. The proliferation is quantified by the addition of SYBR Green I (INVITROGEN)® dye which has a high affinity for double stranded DNA.

| Structure (SMILES) | EC50 (3D7 P. falciparum strain) [nM] | EC50 (W2 strain) [nM] |
| --- | --- | --- |
| CC(C)(N)C(=O)N1CCn2c(nc(-c3ccc(F)cc3)c2Nc2ccc(C#N)cc2)C1 [Compound 263] | 350 | 653 |
| N#Cc1ccc(Nc2c(-c3ccc(F)cc3)nc3n2CCN(C(=O)CN)C3)cc1 [Compound 264] | 110 | 154 |
| CC(C)(O)CC(=O)N1CCn2c(nc(-c3ccc(F)cc3)c2Nc2ccc(C#N)cc2)C1 [Compound 265] | 1350 | 1580 |
| CCCCCNc1ccc(C[C@H](NC(=O)OC(C)(C)C)C(=O)N2CCn3c(nc(-c4ccc(F)cc4)c3Nc3ccc(C)cc3)C2)cc1 [Compound 267, (S)-tert-butyl 1-(2-(4-fluorophenyl)-3-(p-tolylamino)-5,6-dihydroimidazo[1,2-a]pyrazin-7 (8H)-yl)-1-oxo-3-(4-(pentylamino)phenyl)propan-2-ylcarbamate] | 990 | 474 |
| CCC(=O)OC(C(=O)N1CCn2c(nc(-c3ccc(F)cc3)c2Nc2ccc(C)cc2)C1)c1ccccc1 (centres unmarked) [Compound 268] | 10 | 12 |
| CCCC(=O)OC(C(=O)N1CCn2c(nc(-c3ccc(F)cc3)c2Nc2ccc(C)cc2)C1)c1ccccc1 (centres unmarked) [Compound 269] | 10 | 6 |
| O=C(CN1CCn2c(nc(-c3ccc(F)cc3)c2Nc2ccc(Cl)cc2)C1)c1ccc(F)cc1 [Compound 271] | 440 | 385 |
| CCCCCNc1ccc(C[C@H](N)C(=O)N2CCn3c(nc(-c4ccc(F)cc4)c3Nc3ccc(C)cc3)C2)cc1 [Compound 272] | 3590 | 3260 |
| Cc1ccc(Nc2c(-c3ccc(F)cc3)nc3n2CCN(C(=O)N2CCC(N4CCCC(C)C4)CC2)C3)cc1 (centres unmarked) [Compound 273] | 3330 | 3470 |
| Cc1ccc(Nc2c(-c3ccc(F)cc3)nc3n2CCN(C(=O)N2CCC(N4CCCCC4)CC2)C3)cc1 [Compound 274] | 5140 | 5670 |
| Cc1ccc(Nc2c(-c3ccc(F)c(F)c3)nc3n2CCNC3)cc1 [Compound 278] | 210 | 269 |
| Cc1ccc(Nc2c(-c3cccc(Cl)c3)nc3n2CCNC3)cc1 [Compound 279] | 3520 | 3830 |
| Cc1ccc(Nc2c(-c3ccc(F)cc3F)nc3n2CCNC3)cc1 [Compound 280] | 4710 | 4650 |
| CC(O)CN[C@@H](Cc1ccccc1)C(=O)N1CCn2c(nc(-c3ccc(F)cc3)c2Nc2ccc(Cl)c(F)c2)C1 (some centres unmarked) [Compound 281] | 820 | 596 |
| COCCN[C@@H](Cc1ccccc1)C(=O)N1CCn2c(nc(-c3ccc(F)cc3)c2Nc2ccc(Cl)c(F)c2)C1 [Compound 282] | 120 | 117 |
| Cc1c(Cc2ccccc2)nc2n1[C@H](CCc1ccccc1)CN(C(=O)c1cccnc1)[C@H]2Cc1ccccc1 [Compound 283] | 5520 | 3490 |
| Cc1ccc(Nc2c(-c3ccc(F)cc3)nc3n2CCN(C(=O)[C@H](N)CO)C3)cc1 [Compound 284] | 50 | 37 |
| Cc1ccc(Nc2c(-c3ccc(F)cc3)nc3n2CCN(C(=O)[C@H](N)[C@H](C)O)C3)cc1 [Compound 285] | 180 | 177 |
| Cc1ccc(Nc2c(-c3ccc(F)cc3)nc3n2CCN(C(=O)[C@@H](N)CCS(C)(=O)=O)C3)cc1 [Compound 286] | 1380 | 1500 |
| Cc1ccc(Nc2c(-c3ccc(F)cc3)nc3n2CCN(C(=O)[C@H](N)CC(=O)O)C3)cc1 [Compound 287] | 4360 | 7260 |
| Cc1ccc(Nc2c(-c3ccc(F)cc3)nc3n2CCN(C(=O)[C@@H](N)CS(C)(=O)=O)C3)cc1 [Compound 288] | 890 | 1390 |
| Cc1c(Cc2ccccc2)nc2n1[C@H](CCc1ccccc1)C(=O)N[C@@H]2Cc1ccccc1 [Compound 289, (5R,8R)-2,8-dibenzyl-3-methyl-5-phenethyl-7,8-dihydroimidazo[1,2-a]pyrazin-6(5H)-one] | 3880 | 747 |
| CCC(=O)N[C@H](C(=O)N1CCn2c(nc(-c3ccc(F)cc3)c2Nc2ccc(C)cc2)C1)c1ccccc1 [Compound 290] | 440 | 397 |
| CCCC(=O)N[C@H](C(=O)N1CCn2c(nc(-c3ccc(F)cc3)c2Nc2ccc(C)cc2)C1)c1ccccc1 [Compound 291] | 1200 | 567 |
| CN(c1ccc(Cl)c(F)c1)c1c(-c2ccc(F)cc2)nc2n1CCNC2 [Compound 292, N-(4-chloro-3-fluorophenyl)-2-(4-fluorophenyl)-N-methyl-5,6,7,8-tetrahydro imidazo[1,2-a]pyrazin-3-amine] | 150 | 156 |
| CN(c1ccc(Cl)c(F)c1)c1c(-c2ccc(F)cc2)nc2n1CCN(C(=O)C(C)(C)N)C2 [Compound 294] | 110 | 113 |
| CCCCN[C@H](C(=O)N1CCn2c(nc(-c3ccc(F)cc3)c2Nc2ccc(C)cc2)C1)c1ccccc1 [Compound 295] | 210 | 283 |
| CCCCCN[C@H](C(=O)N1CCn2c(nc(-c3ccc(F)cc3)c2Nc2ccc(C)cc2)C1)c1ccccc1 [Compound 296] | 280 | 424 |

| Structure (SMILES) | EC50 (3D7 P. falciparum strain) [nM] | EC50 (W2 strain) [nM] |
| --- | --- | --- |
| CC(C)(C)Nc1c(-c2ccc(F)cc2)nc2n1CCNC2 [Compound 297, N-tert-butyl-2-(4-fluorophenyl)-5,6,7,8-tetrahydroimidazo[1,2-a]pyrazin-3-amine] | 5290 | 8500 |
| Cc1ccc(Nc2c(-c3ccc(F)cc3)nc3n2CCN(C(=O)[C@@H](NC(=O)CCOCCOCCOCCOCCNC(=O)CCCCC2SCC4NC(=O)NC42)c2ccccc2)C3)cc1 (some centres unmarked) [Compound 298] | 610 | 193 |
| Cc1ccc(N2Cc3nc(-c4ccc(F)cc4)c(N)n3CC2=O)cc1 [Compound 299] | > 8740 | 9400 |
| Cc1ccc(Nc2c(-c3ccc(F)cc3)nc3n2CC(=O)NC3)cc1 [Compound 300] | 1110 | 1170 |
| COC[C@H](N)C(=O)N1CCn2c(nc(-c3ccc(F)cc3)c2Nc2ccc(Cl)c(F)c2)C1 [Compound 301] | 30 | 47 |
| O=C(Cc1ccncc1)N1CCn2c(nc(-c3ccc(F)cc3)c2Nc2ccc(Cl)c(F)c2)C1 [Compound 302] | 170 | 149 |
| O=C(Cn1ccc2ccccc21)N1CCn2c(nc(-c3ccc(F)cc3)c2Nc2ccc(Cl)c(F)c2)C1 [Compound 303] | 540 | 439 |
| CCN1CCC(CC(=O)N2CCn3c(nc(-c4ccc(F)cc4)c3Nc3ccc(Cl)c(F)c3)C2)CC1 [Compound 304] | 3210 | 2950 |
| O=C(CNc1ccccc1)N1CCn2c(nc(-c3ccc(F)cc3)c2Nc2ccc(Cl)c(F)c2)C1 [Compound 305] | 90 | 94 |
| O=C(Cc1n[nH]c2ccccc12)N1CCn2c(nc(-c3ccc(F)cc3)c2Nc2ccc(Cl)c(F)c2)C1 [Compound 306] | 420 | 334 |
| CCCNCC(=O)N1CCn2c(nc(-c3ccc(F)cc3)c2Nc2ccc(C)cc2)C1 [Compound 307] | 30 | 22 |
| CCCCCNCC(=O)N1CCn2c(nc(-c3ccc(F)cc3)c2Nc2ccc(C)cc2)C1 [Compound 308] | 60 | 68 |
| COCCNCC(=O)N1CCn2c(nc(-c3ccc(F)cc3)c2Nc2ccc(C)cc2)C1 [Compound 309] | 80 | 68 |
| COCCCNCC(=O)N1CCn2c(nc(-c3ccc(F)cc3)c2Nc2ccc(C)cc2)C1 [Compound 310] | 520 | 397 |
| N[C@H](Cc1ccccc1)C(=O)N1CCn2c(nc(-c3ccc(F)cc3)c2Nc2ccc(Cl)c(F)c2)C1 [Compound 311] | 90 | 72 |
| C[C@H](OCc1ccccc1)[C@H](N)C(=O)N1CCn2c(nc(-c3ccc(F)cc3)c2Nc2ccc(Cl)c(F)c2)C1 [Compound 312] | 1640 | 897 |
| CC(C)[C@H](N)C(=O)N1CCn2c(nc(-c3ccc(F)cc3)c2Nc2ccc(Cl)c(F)c2)C1 [Compound 313] | 20 | 4 |
| C[C@H](N)C(=O)N1CCn2c(nc(-c3ccc(F)cc3)c2Nc2ccc(Cl)c(F)c2)C1 [Compound 314] | 30 | 20 |
| N[C@@H](Cc1cscn1)C(=O)N1CCn2c(nc(-c3ccc(F)cc3)c2Nc2ccc(Cl)c(F)c2)C1 [Compound 315] | 20 | 8 |
| N[C@@H](Cc1ccc(F)cc1)C(=O)N1CCn2c(nc(-c3ccc(F)cc3)c2Nc2ccc(Cl)c(F)c2)C1 [Compound 316] | 20 | 14 |
| CC(C)[C@@H](N)C(=O)N1CCn2c(nc(-c3ccc(F)cc3)c2Nc2ccc(Cl)c(F)c2)C1 [Compound 318] | 150 | 98 |
| N[C@@H](Cc1ccc(F)c(F)c1)C(=O)N1CCn2c(nc(-c3ccc(F)cc3)c2Nc2ccc(Cl)c(F)c2)C1 [Compound 319] | 40 | 27 |
| CNC(C)(C)C(=O)N1CCn2c(nc(-c3ccc(F)cc3)c2Nc2ccc(Cl)c(F)c2)C1 [Compound 320] | 170 | 103 |
| O=C([C@@H]1CCN1)N1CCn2c(nc(-c3ccc(F)cc3)c2Nc2ccc(Cl)c(F)c2)C1 [Compound 321] | 20 | 11 |
| O=C(C1COCCN1)N1CCn2c(nc(-c3ccc(F)cc3)c2Nc2ccc(Cl)c(F)c2)C1 (centres unmarked) [Compound 323] | 1730 | 1330 |
| N[C@@H](Cc1ccccc1)C(=O)N1CCn2c(nc(-c3ccc(F)cc3)c2Nc2ccc(Cl)c(F)c2)C1 [Compound 324] | 30 | 30 |
| N[C@@H](CC1CCC1)C(=O)N1CCn2c(nc(-c3ccc(F)cc3)c2Nc2ccc(Cl)c(F)c2)C1 [Compound 325] | 30 | 29 |
